ChEMBL document CHEMBL1132612, “Melatonergic properties of the (+)- and (-)-enantiomers of N-(4-methoxy-2,3-dihydro-1H-phenalen-2-yl)amide derivatives” (J Med Chem, 1999)

Key:
Melatonin receptor = Melatonin receptor (Gallus gallus, UniProt P49288+P51050+P49285); experiment: Inhibition of 2-[125I]- iodomelatonin from chicken brain melatonin receptors
[1] = molecular target: Melatonin receptor (Xenopus laevis); experiment: The functional activity on melatonin receptor was evaluated by its potency to lighten the skin of Xenopus laevis tadpoles
[2] = tested on: Melatonin receptor (Xenopus laevis); experiment: Percent maximum effect relative to melatonin (100%)
[3] = molecular target: Melatonin receptor (Xenopus laevis); experiment: Functional activity against melatonin receptor in lightening Xenopus laevis tadpole skin

Ki (Melatonin receptor) [nM]	EC50 [1] [nM]	Activity [2] [%]	EC50 [3] [nM]	SMILES
3.2	–	–	–	CCCC(=O)N[C@H]1Cc2cccc3ccc(OC)c(c23)C1
1.7	> 1000	40	–	CCCC(=O)NC1Cc2cccc3ccc(OC)c(c23)C1 (racemic)
9	–	–	–	CCC(=O)N[C@H]1Cc2cccc3ccc(OC)c(c23)C1
8.6	–	40	> 1000	CCC(=O)NC1Cc2cccc3ccc(OC)c(c23)C1 (racemic)
10	–	–	–	CCCC(=O)N[C@@H]1Cc2cccc3ccc(OC)c(c23)C1

The next lines start with the molecule.

SMILES	Ki (Melatonin receptor) [nM]	EC50 [1] [nM]	Activity [2] [%]	EC50 [3] [nM]
CCC(=O)N[C@@H]1Cc2cccc3ccc(OC)c(c23)C1	7.6	–	–	–
COc1ccc2cccc3c2c1CC(NC(C)=O)C3 (racemic)	36.5	–	0	> 1000
O=C(NCCc1cccc2ccccc12)C1CCC1	787	–	–	> 1000
COc1ccc2cccc3c2c1C[C@@H](NC(C)=O)C3	38.3	–	0	> 1000
COc1ccc2cccc3c2c1C[C@H](NC(C)=O)C3	28.7	–	0	> 1000
COc1ccc2ccc(OC)c(CCNC(C)=O)c2c1	–	–	100	0.037
